In patent US6355428B1, “Nucleic acid ligand interaction assays” (Genelabs Technologies, Inc., priority 1998, dated 2002):
One block for each compound: values may come before it.

Columns and labels:
[1] = tested on: A/T rich indicator duplex 5′-CTTTATTATTTT-3′ (SEQ ID NO: 2 and complement) versus competitor oligonucleotides; test: Fluorescence quenching competition assay with unlabeled competitor duplexes; assay type: binding; conditions: for sequence preference from competitor oligos of Table III (FIG. 6): 0.4 μM drug, 0.4 μM unlabeled duplex competitor; for 5 bp A/T site bound most strongly / preferred (FIGS. 11, 12) / discrimination among 5 bp A/T binding sites (FIGS. 11, 12): 5 bp A+T site competitors, Table VI
Source text: Direct assays, as described above, are useful for first level screening of ligand-oligonucleotide binding, e.g. preference for DNA vs. RNA, or A/T vs. C/G rich sequences. In a “next-stage” assay, termed herein a competition or competitive assay, a binding oligonucleotide for a particular ligand, such as determined from direct assays, is used as an “indicator” for competitive studies, which give a further level of detail about ligand binding preferences. A competition experiment starts with first and second indicator oligonucleotides, as described above, containing, respectively, a first group effective to produce a detectable signal, and a second group effective to alter this signal. At the beginning of the assay, the ligand is bound to a duplex of the sequences. Again, experimental conditions of temperature, salt content, etc. are preferably adjusted such that, in the absence of the ligand, the oligonucleotides would exist primarily in single-stranded form. As noted above, the preferred temperature is somewhat higher than the Tm of the duplex (in the absence of ligand) under the conditions of the assay. If desired, for the sake of convenience, conditions may be adjusted so that the assay can be carried out at or near room temperature.
At the beginning of the assay, the indicator sequences form a duplex in the presence of the ligand, so fluorescence is at a minimum for the system. (When other detection systems are used, the signal observed will be that in which the first and second groups are in close proximity.) A “competitor” sequence, having no second (e.g. quenching) group, is then added, typically as a duplex with its complementary sequence. The competing sequence tends to remove the ligand from the indicator duplex at concentrations that become lower as the affinity of the competing sequence for the ligand becomes greater. Alternatively, the competing sequence removes the ligand more effectively at concentrations equimolar with the indicator duplex as the affinity of the competing sequence for the ligand becomes greater. As the ligand is removed, the indicator sequences denature to single-stranded form, quenching is no longer effective (in an F/Q system), and fluorescence increases.
Competition Assays: Competition experiments were generally done in […] HEPES, pH 7.5, 0.1 mM EDTA and 50 mM NaCl. The drug concentration used in the competition assays depends upon the affinity of the drug for a given indicator. For the competition experiments shown, the netropsin and distamycin concentrations used were 0.4 μM. The amount of competitor oligo used was varied from 0.2 μM to 1.0 μM. The data shown is from competition experiments using 0.4 μM unlabeled duplex competitors (see Tables III-VI for the sequences of the competitor oligos).
An unlabeled competitor duplex, selected from those whose sequences are given in Table […], was added at a 0.4 μM concentration, and the change in fluorescence was noted.
Changes in fluorescence of the indicator duplex/netropsin mixture on adding each competitor oligonucleotide are given in FIG. 12.

[2] = tested on: F/Q indicator duplex of SEQ ID NO: 75 and SEQ ID NO: 76; test: Kinetic strand displacement assay (fluorescence quenching); assay type: binding
Source text: This version of the assay is based on the displacement of a shorter strand within an indicator duplex by a longer strand. […] Again, a duplex of first and second sequences, as described above, is used, but in this assay, the strands differ in length, thus creating a single stranded overhang region. In a fluorescence quenching assay format, for example, the “F” strand is generally longer than the “Q” strand. In most cases, a minimum overhang region of about 4-20 nucleotides is effective to initiate strand displacement. Because a longer region will increase the rate of displacement, and it is generally desirable in the assay to reduce the rate of displacement, so as to facilitate measurement, this length of 4-20 nucleotides is generally preferred. A length of 5-7 nucleotides is particularly preferred.
The first and second strands are allowed to form a duplex in the absence of the ligand. In the present example, the “F” and “Q” groups are thus in proximity, giving a minimum level (when Q is a quenching group) of fluorescence. The displacing strand is added, and the rate of displacement, as indicated by an increase (or other change) in fluorescence over time, is observed (see FIG. 2). The experiment is then repeated in the presence of increasing amounts of ligand. A strongly binding ligand will stabilize the initial duplex and thus slow the rate of displacement. It is also expected that a ligand binding closer to the overhang site will also have a greater effect on inhibiting displacement.
The displacing strand, having SEQ ID NO: 77 (Table VI), is added, and the increase in fluorescence is observed over time. […] About 0.08 μM drug was effective to detectably slow the rate of displacement, and at 1.25-2.5 μM, the increase at 2 hrs was reduced to about 40%.
A mixture was formed of 60 nM of a fluorescein labeled 28-nucleotide strand having SEQ ID NO: 75 (Table VI) and 90 nM of a Dabcyl™-labeled 21-nucleotide quenching strand (SEQ ID NO: 76) in a buffer containing 20 mM HEPES, pH 7.5, 0.1 mM EDTA, and 30 mM NaCl. The control experiment contained no added drug; for subsequent experiment, increasing amounts of netropsin were added. To start the displacement reaction, the displacing strand (SEQ ID NO: 77) was added at concentrations of 35 nM to 60 nM. The fluorescence of the system was then monitored every 5 minutes for 90 to 120 minutes.
The initial rate of the displacement reaction was calculated from plots of fluorescence vs. time as the slope of the fluorescence curve from 0 to 60 minutes.
Additional experiments were carried out in which specific, unlabeled DNA competitor duplexes, whose sequences are shown in Table VII, were added to the assay mixture.

[3] = 5′-XAATTY-3′ competitor series, Table V

discrimination among 5 bp A/T binding sites (FIGS. 11, 12) [1]: relatively strong preferences | preferred 5 bp binding site ([1]; concluded from 5′-XAATTY-3′ series): 5′-AATTA-3′
Structure (SMILES): Cn1cc(NC(=O)c2cc(NC(=O)c3cc(NC=O)cn3C)cn2C)cc1C(=O)NCCC(=N)N [Distamycin, distamycin]
sequence preference from competitor oligos of Table III (FIG. 6) [1]: strongly prefer A/T rich DNA | 5 bp A/T site bound most strongly / preferred (FIGS. 11, 12) [1]: 5′-AATTA-3′ | X and Y combinations that competed most effectively (FIG. 9) [1, 3]: AA/TT, CA/TG, GA/TC, and TA/TA | sensitivity to bases at the edge of the AATT site (FIGS. 9 and 10) [1, 3]: much more sensitive

Structure (SMILES): Cn1cc(NC(=O)c2cc(NC(=O)CN=C(N)N)cn2C)cc1C(=O)NCCC(=N)N [Netropsin, netropsin]
effect of unlabeled competitor duplex on rate of displacement in presence of drug (FIG. 16) ([2]; A/T rich competitor duplex SEQ ID NO: 78): rate of displacement is increased by increasing amounts of the A/T rich competitor duplex | increase in fluorescence at 2 hrs ([2]; at 1.25-2.5 μM netropsin, about 175% in absence of drug): about 40% | drug concentration effective to detectably slow the rate of displacement (FIG. 14) ([2]; displacing strand SEQ ID NO: 77): About 0.08 μM | drug concentration giving notable decrease in initial rate of displacement (FIG. 15) ([2]; initial rate = slope 0 to 60 minutes): about 0.08 μM | sequence preference from competitor oligos of Table III (FIG. 6) [1]: strongly prefer A/T rich DNA | 5 bp A/T site bound most strongly / preferred (FIGS. 11, 12) [1]: slight preference for the AAAAA site | discrimination among 5 bp A/T binding sites (FIGS. 11, 12) [1]: considerably less discrimination
